What all share (type): in vivo
Test [1] has as its system Setaria. Description: Post-emergent herbicidal action. The conditions noted are these: 2000 g AS/ha sprayed in the 4- to 6-leaf stage; evaluated about 18 days later; rating scale 1-9 (1=total damage, 9=no action). An excerpt: (§1) In a greenhouse, monocot and dicot test plants are sown in standard soil in plastic pots and sprayed in the 4- to 6-leaf stage with an aqueous suspension of the test compounds of formula I prepared from a 25% wettable powder [Example F3, b) of WO 97/34485] or with an emulsion of the test compound of formula I prepared from a 25% emulsifiable concentrate [Example F1 c) of WO 97/34485] at a concentration of 2 kg active substance/ha (500 l of water/ha). The test plants are then further cultivated in the greenhouse under optimum conditions. The test is evaluated about 18 days later on a rating scale of 1-9 (1=total damage, 9=no action). Ratings of 1 to 4 (especially of 1 to 3) denote good to very good herbicidal action.

Test [2] concerns Stellaria. Description: Post-emergent herbicidal action. The conditions noted are these: 2000 g AS/ha sprayed in the 4- to 6-leaf stage; evaluated about 18 days later; rating scale 1-9 (1=total damage, 9=no action).
From the text: as §1

In test [3] the test system is Cyperus. Briefly: Post-emergent herbicidal action. The conditions noted are these: 2000 g AS/ha sprayed in the 4- to 6-leaf stage; evaluated about 18 days later; rating scale 1-9 (1=total damage, 9=no action).
From the text: as §1

For test [4], the system named is Sinapsis. Description: Post-emergent herbicidal action. Particulars: 2000 g AS/ha sprayed in the 4- to 6-leaf stage; evaluated about 18 days later; rating scale 1-9 (1=total damage, 9=no action).
From the text: as §1

Test [5] deals with Solanig. Description: Post-emergent herbicidal action. Particulars: 2000 g AS/ha sprayed in the 4- to 6-leaf stage; evaluated about 18 days later; rating scale 1-9 (1=total damage, 9=no action).
From the text: as §1

The test system of test [6] is Setaria. Description: Pre-emergent herbicidal action. Particulars: 2000 g AS/ha sprayed immediately after sowing; evaluated 3 weeks later; rating scale 1-9 (1=total damage, 9=no action). The source says: (§2) Monocot and dicot test plants are sown in standard soil in plastic pots. Immediately after sowing, the plants are sprayed at a concentration of 2 kg active substance/ha with an aqueous suspension of the test compound [prepared from a 25% wettable powder (Example F3, b) in accordance with WO 97/34485] or an emulsion of the test compound [prepared from a 25% emulsifiable concentrate (Example Fl c)] (500 l of water/ha). The test plants are then cultivated in the greenhouse under optimum conditions. The test is evaluated 3 weeks later on a rating scale of 1-9 (1=total damage, 9=no action). Ratings of 1 to 4 (especially of 1 to 3) denote good to very good herbicidal action.

The test system of test [7] is Stellaria. Description: Pre-emergent herbicidal action. The conditions noted are these: 2000 g AS/ha sprayed immediately after sowing; evaluated 3 weeks later; rating scale 1-9 (1=total damage, 9=no action).
From the text: as §2

In test [8] the test system is Cyperus. Description: Pre-emergent herbicidal action. Particulars: 2000 g AS/ha sprayed immediately after sowing; evaluated 3 weeks later; rating scale 1-9 (1=total damage, 9=no action).
From the text: as §2

Test [9] has as its system Sinapsis. Briefly: Pre-emergent herbicidal action. Particulars: 2000 g AS/ha sprayed immediately after sowing; evaluated 3 weeks later; rating scale 1-9 (1=total damage, 9=no action).
From the text: as §2

Test [10] concerns Solanig. Briefly: Pre-emergent herbicidal action. The conditions noted are these: 2000 g AS/ha sprayed immediately after sowing; evaluated 3 weeks later; rating scale 1-9 (1=total damage, 9=no action).
From the text: as §2

As to `COCc1c(S(C)(=O)=O)ccc(C(=O)C2=C(O)C(C)(C)ON(C)C2=O)c1C` [2,001, 5-hydroxy-4-(4-methylsulphonyl-3-methoxymethyl-2-methyl-benzoyl)-2,6,6-trimethyl-6.H.-[1,2]oxazin-3-one], the “Post-emergent action, test plant Setaria, rating” value in the test on Setaria [1] is recorded as 3. Besides, the “Post-emergent action, test plant Stellaria, rating” value with Stellaria [2] was 4. In addition, the “Post-emergent action, test plant Cyperus, rating” value in the test with Cyperus [3] worked out at 3. For the same compound, the “Post-emergent action, test plant Sinapsis, rating” value with Sinapsis [4] is 2. Further, the “Post-emergent action, test plant Solanig, rating” value in the test with Solanig [5] amounted to 2. The “Pre-emergent action, test plant Setaria, rating” value with Setaria [6] is 3. The “Pre-emergent action, test plant Stellaria, rating” value with Stellaria [7] amounted to 2. The “Pre-emergent action, test plant Cyperus, rating” value in the test on Cyperus [8] stood at 3. Also, the “Pre-emergent action, test plant Sinapsis, rating” value in the test on Sinapsis [9] amounted to 2. Also, the “Pre-emergent action, test plant Solanig, rating” value in the test on Solanig [10] is 2.
In the case of `COCc1c(S(C)(=O)=O)ccc(C(=O)C2=C(O)C3CCC(C3)C2=O)c1C` (centres unmarked) [1,001, 4-hydroxy-3-(4-methylsulphonyl-3-methoxymethyl-2-methyl-benzoyl)-bicyclo[3.2.1]oct-3-en-2-one], the “Post-emergent action, test plant Setaria, rating” value with Setaria [1] is listed as 2. Further, in the test with Stellaria [2], the “Post-emergent action, test plant Stellaria, rating” value is given as 2. Also, in the test with Cyperus [3], the “Post-emergent action, test plant Cyperus, rating” value is listed as 3. Besides, in the test on Sinapsis [4], the “Post-emergent action, test plant Sinapsis, rating” value is 2. For the same compound, the “Post-emergent action, test plant Solanig, rating” value with Solanig [5] worked out at 2. Moreover, the “Pre-emergent action, test plant Setaria, rating” value with Setaria [6] came out at 3. The “Pre-emergent action, test plant Stellaria, rating” value with Stellaria [7] is 2. Moreover, the “Pre-emergent action, test plant Cyperus, rating” value in the test with Cyperus [8] stood at 3. For the same compound, the “Pre-emergent action, test plant Sinapsis, rating” value in the test with Sinapsis [9] is reported as 3. Also, the “Pre-emergent action, test plant Solanig, rating” value with Solanig [10] was 2.

(Values after patent US20070265165A1, “NOVEL HERBICIDES” (Syngenta Crop Protection, Inc., priority 1998, published 2007).)
